A word on the IC50: it is the midpoint of a concentration-inhibition curve.

Data set [1] in a line: Relative solubility by turbidity in aqueous buffers (pH 1.5, 4.5, 6.8, 7.4). Format: physicochemical. To be noted: for turbidity threshold (L, M, H) 1.4: pH 1.5 (SGF); for turbidity threshold (L, M, H) 4.5: pH 4.5 (SIF); for turbidity threshold (L, M, H) 6.8: pH 6.8 (SIF); for turbidity threshold (L, M, H) 7.4: pH 7.4 (HEPES). The protocol:
As an indication of relative solubility, the turbidity of compounds in aqueous solutions is assessed. To assess possible compound properties in different physiological compartments, such as stomach, intestine, and blood, a series of aqueous buffers with varying pH is used. Thus each compound is diluted into four different physiologically relevant buffers and solution turbidity is measured by spectrophotometry.
Compounds are dissolved at a concentration of 25 mM in dimethyl sulfoxide, then serially diluted 1:1 into a 96 well plate, diluting 10 times in pure dimethyl sulfoxide, with the final well of each row a dimethyl sulfoxide blank. In an assay plate, 99 μL of appropriate buffer is added to each well, and 1 μL of each sample dilution is added to the buffer, achieving a range of final total concentrations in aqueous solutions having different pH. The buffers used are Simulated Gastric Fluid (SGF-pH 1.5) 0.5M NaCl, pH 1.5; Simulated Intestinal fluid (SIF-pH 4.5 and pH 6.8) 0.05M NaH2PO4, pH 4.5 and 6.8; and Hepes Buffer (HEPES-pH 7.4) 10 mM HEPES, 150 mM NaCl, pH 7.4. Control compounds pyrene, estriol and propranolol HCl are also assessed. Plates are spun and then mixed for 1 minute, and the absorbance is read using a Tecan Safire II to read wavelengths in the visible range (490, 535, and 650 nm) at four locations per well, reflecting the degree of turbidity present. The average optical density for each wavelength in each well is graphed vs. compound concentration, and the concentration at which the curve crosses a threshold O.D. of 0.01 for each wavelength is reported as the endpoint turbidity assay result. The average of the three wavelengths is used to compare turbidity of compounds.

Another data set concerns the target CYP3A4(BFC) (Homo sapiens, UniProt P08684). Kind of data set: CYP3A4(BFC) inhibition. The class given is in vitro ADME. To be noted: CYP3A4, substrate BFC; read-out: Cyp IC50 3A4(BFC). Here is the method: CYP (Cytochrome P450) enzymes are the major drug metabolizing enzymes present in the liver. The inhibition of CYP enzyme activity (IC50) for each of CYP1A2, CYP2C19, CYP2C9, CYP2D6, CYP3A4(BFC) and CYP3A4(BQ) is determined for compounds, where inhibition of metabolism of a known substrate leads to a decrease in the fluorescence of the metabolized product. The fluorescence of the product is monitored as a function of compound concentration. Compounds are dissolved in DMSO to a concentration of 100 mM. These are diluted 1 μL into 82 μL of acetonitrile. An 11 μL aliquot of this solution is then added to 204 μL of cofactor mix (1.3% NADPH Regeneration system Solution A, 1.04% NADPH Regeneration system Solution B from BD Biosciences, 5% acetonitrile and 0.05% DMSO). These are then serially diluted 1:1 (160 μL to 160 μL co-factor mix) for a total of 10 points. A 10 μL aliquot of this final mixture is dispensed into 384 well assay plates and incubated for 10 minutes at 37° C. […] Assay plates are incubated at 37° C. (CYP1A2-15 min; CYP2C9-45 min; CYP2C19, 2D6 and 3A4-30 min) and read in a Tecan Safire 2 plate reader (CYP1A2, 2C19 and 3A4 409 ex/460 em; CYP2C9 and 2D6 409 ex/530 em). The signal versus compound concentration is used to determine the IC50. The enzymes and substrates for this assay are obtained from BD Biosciences.

CYP3A4(BFC), sequence (P08684 whole entry): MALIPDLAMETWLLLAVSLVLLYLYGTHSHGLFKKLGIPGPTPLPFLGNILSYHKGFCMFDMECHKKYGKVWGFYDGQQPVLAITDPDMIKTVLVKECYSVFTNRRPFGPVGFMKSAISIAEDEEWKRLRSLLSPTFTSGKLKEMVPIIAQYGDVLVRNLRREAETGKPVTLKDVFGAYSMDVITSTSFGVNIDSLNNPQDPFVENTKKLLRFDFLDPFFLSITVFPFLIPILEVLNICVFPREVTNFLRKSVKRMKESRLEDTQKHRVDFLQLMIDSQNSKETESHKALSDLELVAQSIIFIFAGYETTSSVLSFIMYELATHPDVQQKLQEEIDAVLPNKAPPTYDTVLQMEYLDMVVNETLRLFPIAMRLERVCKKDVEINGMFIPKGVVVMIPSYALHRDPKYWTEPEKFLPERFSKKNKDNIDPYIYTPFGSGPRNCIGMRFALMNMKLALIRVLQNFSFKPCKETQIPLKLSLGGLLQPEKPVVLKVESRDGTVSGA

Consider `COc1ccc(Nc2ccc(C(=O)c3c[nH]c4ncnc(NCc5ccc(C(F)(F)F)nc5)c34)c(F)n2)cn1` [Compound P-4071, [2-fluoro-6-[(6-methoxy-3-pyridyl)amino]-3-pyridyl]-[4-[[6-(trifluoromethyl)-3-pyridyl]methylamino]-7H-pyrrolo[2,3-d]pyrimidin-5-yl]methanone], for which, in data set [1], the “turbidity threshold (L, M, H) 1.4” value is “M (moderate solubility if the threshold concentration is 31.3 μM to 250 μM)”; the “turbidity threshold (L, M, H) 4.5” value is listed as “M (moderate solubility if the threshold concentration is 31.3 μM to 250 μM)”; the “turbidity threshold (L, M, H) 6.8” value is given as “M (moderate solubility if the threshold concentration is 31.3 μM to 250 μM)”; the “turbidity threshold (L, M, H) 7.4” value is reported as “M (moderate solubility if the threshold concentration is 31.3 μM to 250 μM)”. On CYP3A4(BFC), the IC50 is over 10 µM. As to `Cc1ccc(Nc2ccc(C(=O)c3c[nH]c4ncnc(NCC5CC5)c34)c(F)n2)cn1` [Compound P-4113, [4-(cyclopropylmethylamino)-7H-pyrrolo[2,3-d]pyrimidin-5-yl]-[2-fluoro-6-[(6-methyl-3-pyridyl)amino]-3-pyridyl]methanone], the half-maximal inhibitory concentration (IC50) at CYP3A4(BFC) was over 10 µM.

Consider `COc1ccc(Nc2ccc(C(=O)c3c[nH]c4ncnc(NC5CC5)c34)c(F)n2)cn1` [Compound P-4126, [4-(cyclopropylamino)-7H-pyrrolo[2,3-d]pyrimidin-5-yl]-[2-fluoro-6-[(6-methoxy-3-pyridyl)amino]-3-pyridyl]methanone], for which, at CYP3A4(BFC), the IC50 is under 10 µM. Same read-out and setting: the result for `Clc1ccc(Nc2ncc(Cc3c[nH]c4ncc(Cl)cc34)cn2)cc1` [Compound P-3011, (4-Chloro-phenyl)-[5-(5-chloro-1H-pyrrolo[2,3-b]pyridin-3-ylmethyl)-pyrimidin-2-yl]-amine] reads over 10 µM; that for `O=C(c1ccc(Nc2ccc(C3CC3)nc2)nc1F)c1c[nH]c2ncnc(NCC(F)(F)F)c12` [Compound P-4090, [6-[(6-cyclopropyl-3-pyridyl)amino]-2-fluoro-3-pyridyl]-[4-(2,2,2-trifluoroethylamino)-7H-pyrrolo[2,3-d]pyrimidin-5-yl]methanone], over 10 µM; that for `CC1CCC(Nc2ncc(Cc3c[nH]c4ncc(Cl)cc34)cn2)CC1` (stereo not shown) [Compound P-3009, [5-(5-Chloro-1H-pyrrolo[2,3-b]pyridin-3-ylmethyl)-pyrimidin-2-yl]-(4-methyl-cyclohexyl)-amine], 5 to 10 µM. For the molecule `Fc1ccccc1Nc1ncc(Cc2c[nH]c3ncc(Cl)cc23)cn1` [Compound P-3014, [5-(5-Chloro-1H-pyrrolo[2,3-b]pyridin-3-ylmethyl)-pyrimidin-2-yl]-(2-fluoro-phenyl)-amine], in data set [1], the “turbidity threshold (L, M, H) 1.4” value was “H (high solubility if the threshold concentration is >250 μm)”; the “turbidity threshold (L, M, H) 4.5” value was “M (moderate solubility if the threshold concentration is 31.3 μM to 250 μM)”; the “turbidity threshold (L, M, H) 6.8” value is “M (moderate solubility if the threshold concentration is 31.3 μM to 250 μM)”; the “turbidity threshold (L, M, H) 7.4” value was “M (moderate solubility if the threshold concentration is 31.3 μM to 250 μM)”. Regarding `CCc1ccc(Nc2ccc(C(=O)c3c[nH]c4ncnc(NCC(C)(C)O)c34)c(F)n2)cn1` [Compound P-4064, [6-[(6-ethyl-3-pyridyl)amino]-2-fluoro-3-pyridyl]-[4-[(2-hydroxy-2-methyl-propyl)amino]-7H-pyrrolo[2,3-d]pyrimidin-5-yl]methanone], at CYP3A4(BFC), the IC50 is over 10 µM.

In the case of `COc1ccc(Nc2ccc(C(=O)c3c[nH]c4ncnc(N5CCCCC5)c34)c(F)n2)cn1` [Compound P-4069, [2-fluoro-6-[(6-methoxy-3-pyridyl)amino]-3-pyridyl]-[4-(1-piperidyl)-7H-pyrrolo[2,3-d]pyrimidin-5-yl]methanone], the IC50 at CYP3A4(BFC) fell in the range of 5 to 10 µM.

The values are drawn from US8901118B2, “Compounds and methods for kinase modulation, and indications therefor” (Plexxikon Inc., priority 2010, dated 2014).
